# Literature values as cited in PMC10814857, “Functional Classification and Interaction Selectivity Landscape of the Human SH3 Domain Superfamily” (Cells, 2024).
# Where two headings read alike, the source gives them in different places.
# Key:
# [1] = biological target: LCK SH3 domain; conditions: FL, Table S4, ref [74]; cited from earlier work
# [2] = biological target: SNX9 SH3 domain; conditions: cited from earlier work
# [3] = biological target: ITSN1-2 SH3 domain; conditions: ITSN1-2, ITC, Table S4; ref [29]; cited from earlier work
# Experimental: (§1) page 6: […] […] […] PAK2 […] PXXXPR PXXXPR 1.05 ITC [34] TRSVI ITSN1-2 Synthetic […] Exceptional [W/F][R/W]xSx[A/ 53 ITC [29] peptide G][F/Y][L/V]xGP[ W/L] NCK1-2 N-WASP GP[…] … 147 HSQC [64] VA[…] 199 PLCG1 SOS1 AAPV[…] … 0.20mM SPR [75] AADS[…] 0.40mM AAES[…] 0.70mM AAIA[…] 0.28mM BAIAP2L1 EspFUR45 IPP[…] … 0.5 nM ITC [76] (IRTKS) 9 SORBS2- Synthetic […] Exceptional XRXGXAYLXYVX 38 ITC [29] 1 peptide Synthetic RL[…](L/P) ...
# [4] = biological target: STAM2 SH3 domain; conditions: STAM2, FL, Table S4; ref [52]; cited from earlier work
# Experimental: as §1
# [5] = biological target: BAIAP2L1 (IRTKS) SH3 domain; conditions: ITC, Table S4, ref [76]; cited from earlier work
# Experimental: page 6: […][…] […] PAK2 […] PXXXPR PXXXPR 1.05 ITC [34] TRSVI ITSN1-2 Synthetic […] Exceptional [W/F][R/W]xSx[A/ 53 ITC [29] peptide G][F/Y][L/V]xGP[ W/L] NCK1-2 N-WASP GP[…] … 147 HSQC [64] VA[…] 199 PLCG1 SOS1 AAPV[…] … 0.20mM SPR [75] AADS[…] 0.40mM AAES[…] 0.70mM AAIA[…] 0.28mM BAIAP2L1 EspFUR45 IPP[…] … 0.5 nM ITC [76] (IRTKS) 9 SORBS2- Synthetic […] Exceptional XRXGXAYLXYVX 38 ITC [29] 1 peptide Synthetic RL[…](L/P) ...
# [6] = biological target: SH3PXD2B-1/2 SH3 domains; design: method as in ref [68] (a number printed in a supplementary file, which may have a reference list of its own: not looked up in the article's list); conditions: SH3PXD2B-1/2, FL, Table S4; ref [68]; cited from earlier work
# [7] = biological target: SH3PXD2B-1/2 SH3 domains; design: method as in ref [68] (a number printed in a supplementary file, which may have a reference list of its own: not looked up in the article's list); conditions: SH3PXD2B-1/2, MST, Table S4; ref [68]; cited from earlier work
# [8] = biological target: CRK-1 SH3 domain; design: method as in ref [70] (a number printed in a supplementary file, which may have a reference list of its own: not looked up in the article's list); conditions: CRK-1, ITC, Table S4; ref [70]; cited from earlier work
# [9] = biological target: FYN SH3 domain; design: method as in ref [20] (a number printed in a supplementary file, which may have a reference list of its own: not looked up in the article's list); conditions: CD, Table S4, ref [20]; cited from earlier work
# [10] = biological target: FYN SH3 domain; design: method as in ref [20] (a number printed in a supplementary file, which may have a reference list of its own: not looked up in the article's list); conditions: ITC, Table S4, ref [20]; cited from earlier work
# [11] = biological target: FYN SH3 domain; design: method as in ref [20] (a number printed in a supplementary file, which may have a reference list of its own: not looked up in the article's list); conditions: NMR, Table S4, ref [20]; cited from earlier work
# [12] = biological target: PACSIN1 SH3 domain; design: method as in ref [61] (a number printed in a supplementary file, which may have a reference list of its own: not looked up in the article's list); conditions: PACSIN1, HSQC, Table S4; ref [61]; cited from earlier work
# [13] = biological target: PACSIN2 SH3 domain; design: method as in ref [61] (a number printed in a supplementary file, which may have a reference list of its own: not looked up in the article's list); conditions: PACSIN2, HSQC, Table S4; ref [61]; cited from earlier work
# [14] = biological target: PACSIN3 SH3 domain; design: method as in ref [61] (a number printed in a supplementary file, which may have a reference list of its own: not looked up in the article's list); conditions: PACSIN3, HSQC, Table S4; ref [61]; cited from earlier work
# [15] = biological target: SPTAN1 SH3 domain; design: method as in ref [63] (a number printed in a supplementary file, which may have a reference list of its own: not looked up in the article's list); conditions: SPTAN1, FL, Table S4; ref [63]; cited from earlier work
# [16] = biological target: CD2AP-1 (CMS) SH3 domain; conditions: SPR, Table S4, ref [50, 82]; cited from earlier work
# From the text: page 7: […] E CD2AP-1 CD2 […] PX(P/A)XXR PXXXPR 100 SPR [50, (CMS) G 82] SH3KBP1- 1 (CIN85) 1 The underlined residues in the second column represent motifs associated with the published consensus PRMs, while the residues highlighted in green represent the proposed consensus PRM identified in the current study. 2 CD: Circular Dichroism Spectroscopy FL: fluorescence-based titrations; HSQC: Heteronuclear Single Quantum Coherence; ITC: Isothermal titration calorimetry; MST: microscale thermophoresis 7
# [17] = biological target: p85A SH3 domain; design: method as in ref [62] (a number printed in a supplementary file, which may have a reference list of its own: not looked up in the article's list); conditions: FL, Table S4, ref [62]; cited from earlier work
# [18] = biological target: AMPH SH3 domain; conditions: g-radiation, Table S4, ref [80]; cited from earlier work
# Experimental: as §1
# [19] = biological target: HCK SH3 domain; conditions: SPR, Table S4, ref [72]; cited from earlier work
# [20] = biological target: FYN SH3 domain; conditions: SPR, Table S4, ref [72]; cited from earlier work
substance,measurement,setting,value
ATLDPGMPTPPLPPRPANLG [published Tip peptide],Kd,[1],16.8 µM
AERLIPRRPAPPVPVPARIPSPR,Kd,[2],0.3 µM
WRDSSGYVMGPW [published synthetic peptide (ITSN1-2 ligand)],Kd,[3],53 µM
TPMVNRENKPP [published UBPY peptide],Kd,[4],27 µM
IPPAPNWPAPTPP [published peptide EspFUR45],Kd,[5],0.0005 µM
GSHMGDAKQRSPKMRQRPPPRRDMTIPRGLNLPKPPIPPQVE [published SH3PXD2B peptide],Kd,[6],11 µM
same,Kd,[7],15 µM
DNSPPPALPPKKRQSAPS [published C3G peptide],Kd,[8],~2 µM
PPRPLPVAPGSSKT [published peptide P2L],Kd,[9],28 µM
same,Kd,[10],16 µM
same,Kd,[11],50 µM
TKGPAPNPPPVLKV [published TRPV4 peptide],Kd,[12],51.6 µM
same,Kd,[13],12.7 µM
same,Kd,[14],68.6 µM
ASYPPVPPP [published Peptide41 (SPTAN1 ligand)],Kd,[15],160 µM
QKGPPLPRPRVQPKPPHG [published CD2 peptide],Kd,[16],100 µM
RKLPPRPSK [published synthetic peptide (p85A ligand)],Kd,[17],9.1 µM
PSRPNR [published Dynamin-I peptide],Kd,[18],0.19 µM
PVRPQVPLRPMT [published Nef peptide],Kd,[19],91 µM
same,Kd,[20],202 µM
